Ki data for 28 compounds are collected here from US8637501B2, “Azinone-substituted azepino[b]indole and pyrido-pyrrolo-azepine MCH-1 antagonists, methods of making, and use thereof” (Albany Molecular Research, Inc., priority 2009, dated 2014).

Structures are written as SMILES. Counter-ions that a name gives are not always drawn.

Usually Ki stands for a measure of affinity in units of concentration, obtained from inhibition or displacement.

The target of this experiment is human MCH-1 receptor (Homo sapiens (Human), UniProt Q99705). Kind of experiment: Binding Assay for Human Melanin-Concentrating Hormone (MCH-1) Receptor. To be noted: radioligand displacement, membranes from CHO-K1 cells expressing human MCH-1 receptor; Ki from IC50 by Cheng Prusoff equation; read-out: MCH1 Ki. Here is the method: Binding Assay for Human Melanin-Concentrating Hormone (MCH-1) Receptor
Chain of human MCH-1 receptor (Q99705 whole entry): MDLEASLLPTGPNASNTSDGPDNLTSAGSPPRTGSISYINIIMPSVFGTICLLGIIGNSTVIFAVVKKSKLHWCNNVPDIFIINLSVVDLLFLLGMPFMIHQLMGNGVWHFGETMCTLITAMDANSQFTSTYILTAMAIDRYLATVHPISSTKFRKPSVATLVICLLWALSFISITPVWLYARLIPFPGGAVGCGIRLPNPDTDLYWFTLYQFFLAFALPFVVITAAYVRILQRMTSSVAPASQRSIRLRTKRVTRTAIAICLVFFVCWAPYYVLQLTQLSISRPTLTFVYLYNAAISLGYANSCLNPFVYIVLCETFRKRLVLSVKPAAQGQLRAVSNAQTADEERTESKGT
Evaluation of the affinity of compounds for the human MCH-1 receptor was accomplished using 4-(3,4,5-tritritiumbenzyloxy)-1-(1-(2-(pyrrolidin-1-yl)ethyl)-1H-indazol-5-yl)pyridin-2(1H)-one and membranes prepared from stable CHO-K1 cells expressing the human MCH-1 receptor obtained from Euroscreen (Batch 1138). Cell membrane homogenates (8.92 μg protein) were incubated for 60 min at 25° C. with 1.4 nM of the [^3H]-labeled compound in the absence or presence of the test compound in 50 mM Tris-HCl buffer, pH 7.4. Nonspecific binding was determined in the presence of 50 μM 1-(5-(4-cyanophenyl)bicyclo[3.1.0]hexan-2-yl)-3-(4-fluoro-3-(trifluoromethyl)phenyl)-1-(3-(4-methylpiperazin-1-yl)propyl)urea. Following incubation, the samples were filtered rapidly under vacuum through Skatron 11731 filters, pre-soaked in 0.5% polyethylenimine, and washed with ice-cold 50 mM Tris-HCl buffer, pH 7.4, (wash setting 9,9,0) using a Skatron cell harvester. The filters were counted for radioactivity in a liquid scintillation counter (Tri-Carb 2100TR, Packard) using a scintillation cocktail (Ultima Gold MV, Perkin Elmer).
The results are expressed as a percent inhibition of the control radioligand specific binding. The IC50 value (concentration causing a half-maximal inhibition of control specific binding) and Hill coefficient (nH) were determined by non-linear regression analysis of the competition curve using Hill equation curve fitting. The inhibition constant (Ki) was calculated from the Cheng Prusoff equation: (Ki=IC50/(1+(L/KD)), where L=concentration of radioligand in the assay, and KD=affinity of the radioligand for the receptor.
A general note: Loss of bound radioactivity is the signal in a displacement assay; it reports binding, not function.
`Cn1c2c(c3ccc(-n4ccc(-c5ccc(C(F)(F)F)nn5)cc4=O)cc31)CCNCC2` [Example 2, 1-(6-Methyl-1,2,3,4,5,6-hexahydroazepino[4,5-b]indol-8-yl)-4-(6-(trifluoromethyl)pyridazin-3-yl)pyridin-2(1H)-one dihydrochloride]: the Ki is 14.4 nM.
With `Cn1c2c(c3ccc(-n4ccc(-c5ccc(C(F)(F)F)cn5)cc4=O)cc31)CCNCC2` [Example 3, 1-(6-Methyl-1,2,3,4,5,6-hexahydroazepino[4,5-b]indol-8-yl)-4-(5-(trifluoromethyl)pyridin-2-yl)pyridin-2(1H)-one dihydrochloride] the figure was 10.1 nM; with `Cn1c2c(c3ccc(-n4ccc(-c5ccc(C(F)(F)F)nc5)cc4=O)cc31)CCNCC2` [Example 4, 1-(6-Methyl-1,2,3,4,5,6-hexahydroazepino[4,5-b]indol-8-yl)-4-(6-(trifluoromethyl)pyridin-3-yl)pyridin-2(1H)-one dihydrochloride], 7.1 nM; with `Cn1c2c(c3ccc(-n4ccc(OCc5ccc(C(F)(F)F)nc5)cc4=O)cc31)CCNCC2` [Example 5, 1-(6-Methyl-1,2,3,4,5,6-hexahydroazepino[4,5-b]indol-8-yl)-4-((6-(trifluoromethyl)pyridin-3-yl)methoxy)pyridin-2(1H)-one dihydrochloride], 11.8 nM.
For the compound `Cn1c2c(c3ccc(-n4ccc(-c5cnc(C(F)(F)F)nc5)cc4=O)cc31)CCNCC2` [Example 6, 1-(6-Methyl-1,2,3,4,5,6-hexahydroazepino[4,5-b]indol-8-yl)-4-(2-(trifluoromethyl)pyrimidin-5-yl)pyridin-2(1H)-one dihydrochloride], the Ki turned out to be 131 nM.
Consider `O=c1cc(-c2ccc(C(F)(F)F)nn2)ccn1-c1ccc2c3c([nH]c2c1)CCNCC3` [Example 8, 1-(1,2,3,4,5,6-Hexahydroazepino[4,5-b]indol-8-yl)-4-(6-(trifluoromethyl)pyridazin-3-yl)pyridin-2(1H)-one dihydrochloride], for which the Ki worked out at 148 nM.
With `O=c1cc(-c2ccc(C(F)(F)F)cn2)ccn1-c1ccc2c3c([nH]c2c1)CCNCC3` [Example 9, 1-(1,2,3,4,5,6-Hexahydroazepino[4,5-b]indol-8-yl)-4-(5-(trifluoromethyl)pyridin-2-yl)pyridin-2(1H)-one dihydrochloride] the figure was 1370 nM; with `Cn1c2c(c3ccc(-n4ncc(OCc5ccc(F)cn5)cc4=O)cc31)CCNCC2` [Example 10, 5-((5-Fluoropyridin-2-yl)methoxy)-2-(6-methyl-1,2,3,4,5,6-hexahydroazepino[4,5-b]indol-8-yl)pyridazin-3(2H)-one dihydrochloride], 13.4 nM; with `Cc1ccc(-c2ccn(-c3ccc4c5c(n(C)c4c3)CCNCC5)c(=O)c2)cn1` [Example 11, 1-(6-Methyl-1,2,3,4,5,6-hexahydroazepino[4,5-b]indol-8-yl)-4-(6-methylpyridin-3-yl)pyridin-2(1H)-one dihydrochloride], 49 nM.
With `O=c1cc(-c2ccc(C(F)(F)F)cc2)ccn1-c1ccc2c3c([nH]c2c1)CCNCC3` [Example 12, 1-(1,2,3,4,5,6-Hexahydroazepino[4,5-b]indol-8-yl)-4-(4-(trifluoromethyl)phenyl)pyridin-2(1H)-one hydrochloride] the figure was 11.4 nM; with `O=c1cc(OCc2ccc(F)cn2)ccn1-c1ccc2c3c([nH]c2c1)CCNCC3` [Example 13, 4-((5-Fluoropyridin-2-yl)methoxy)-1-(1,2,3,4,5,6-hexahydroazepino[4,5-b]indol-8-yl)pyridin-2(1H)-one dihydrochloride], 10.3 nM.
With `CC(C)N1CCc2c(n(C)c3cc(-n4ccc(OCc5ccc(F)cn5)cc4=O)ccc23)CC1` [Example 16, 4-((5-Fluoropyridin-2-yl)methoxy)-1-(3-isopropyl-6-methyl-1,2,3,4,5,6-hexahydroazepino[4,5-b]indol-8-yl)pyridin-2(1H)-one hydrochloride] the figure was 13.7 nM.
`Cl.Cn1c2c(c3ccc(-n4ccc(-c5ccc(C(F)(F)F)cn5)cc4=O)cc31)CCCNC2` [Example 20, 1-(10-Methyl-1,2,3,4,5,10-hexahydroazepino[3,4-b]indol-8-yl)-4-(5-trifluoromethyl)pyridin-2-yl)pyridin-2(1H)-one hydrochloride]: the Ki was 242 nM.
With `Cn1c2c(c3ccc(-n4ccc(OCc5ccc(F)cn5)cc4=O)cc31)CNCCC2` [Example 22, 4-((5-Fluoropyridin-2-yl)methoxy)-1-(6-methyl-1,2,3,4,5,6-hexahydroazepino[4,3-b]indol-8-yl)-)pyridin-2(1H)-one hydrochloride] the figure was 11.2 nM.
With `Cn1c2c(c3ccc(-n4ccc(OCc5ccc(C(F)(F)F)nc5)cc4=O)cc31)CNCCC2` [Example 24, 1-(6-Methyl-1,2,3,4,5,6-hexahydroazepino[4,3-b]indol-8-yl)-4-((6-(trifluoromethyl)pyridin-3-yl)methoxy)pyridin-2(1H)-one hydrochloride] the figure was 6.4 nM; with `Cn1c2c(c3ccc(-n4ccc(-c5cnc(C(F)(F)F)nc5)cc4=O)cc31)CNCCC2` [Example 25, 1-(6-Methyl-1,2,3,4,5,6-hexahydroazepino[4,3-b]indol-8-yl)-4-(2-(trifluoromethyl)pyrimdin-5-yl)pyridin-2(1H)-one hydrochloride], 42.3 nM; with `Cl.Cn1c2c(c3ccc(-n4ccc(-c5ccc(C(F)(F)F)cc5)cc4=O)cc31)CNCCC2` [Example 26, 1-(6-Methyl-1,2,3,4,5,6-hexahydroazepino[4,3-b]indol-8-yl)-4(4-trifluoromethyl)phenyl)pyridin-2(1H)-one hydrochloride], 6.1 nM.
Regarding `CN1CCCc2c(c3ccc(-n4ccc(OCc5ccccc5)cc4=O)cc3n2C)C1` [Example 29, 4-(Benzyloxy)-1-(2,6-dimethyl-1,2,3,4,5,6-hexahydroazepino[4,3-b]indol-8-yl)pyridin-2(1H)-one hydrochloride], the Ki stood at 5 nM.
Turning to `CCN1CCCc2c(c3ccc(-n4ccc(OCc5ccccc5)cc4=O)cc3n2C)C1` [Example 30, 4-(Benzyloxy)-1-(2-ethyl-6-methyl-1,2,3,4,5,6-hexahydroazepino[4,3-b]indol-8-yl)pyridin-2(1H)-one hydrochloride], the Ki was 5 nM.
With `CC(C)N1CCCc2c(c3ccc(-n4ccc(OCc5ccccc5)cc4=O)cc3n2C)C1` [Example 31, 4-(Benzyloxy)-1-(2-isopropyl-6-methyl-1,2,3,4,5,6-hexahydroazepino[4,3-b]indol-8-yl)pyridin-2(1H)-one hydrochloride] the figure was 9.4 nM; with `Cc1ccc(COc2ccn(-c3ccc4c5c(n(C)c4c3)CCCNC5)c(=O)c2)cn1` [Example 34, 1-(6-Methyl-1,2,3,4,5,6-hexahydroazepino[4,3-b]indol-8-yl)-4-((6-methylpyridin-3-yl)methoxy)pyridin-2(1H)-one hydrochloride], 10.6 nM; with `O=c1cc(OCc2ccccc2)ccn1-c1ccc2c3c([nH]c2c1)CCCNC3` [Example 35, 4-(Benzyloxy)-1-(1,2,3,4,5,6-hexahydroazepino[4,3-b]indol-8-yl)pyridin-2(1H)-one hydrochloride], 5.8 nM.
With `Cn1c2c(c3ccc(-n4ncc(OCc5ccc(F)cn5)cc4=O)cc31)CNCCC2` [Example 39, 5-((5-Fluoropyridin-2-yl)methoxy)-2-(6-methyl-1,2,3,4,5,6-hexahydroazepino[4,3-b]indol-8-yl)pyridazin-3(2H)-one hydrochloride] the figure was 16.8 nM; with `Cl.Cn1c2c(c3ccc(-n4ccc(OCc5ccc(F)cn5)cc4=O)cc31)CCNCC2` [Example 40, 4-((5-Fluoropyridin-2-yl)methoxy-1-(6-methyl-1,2,3,4,5,6-hexahydroazepino[4,5-b]indol-8-yl)pyridin-2(1H)-one hydrochloride], 7.2 nM; with `Cl.Cn1c2c(c3ccc(-n4ccc(-c5ccc(C(F)(F)F)cc5)cc4=O)cc31)CCNCC2` [Example 41, 1-(6-Methyl-1,2,3,4,5,6-hexahydroazepino[4,5-b]indol-8-yl)-4(4-trifluoromethyl)phenyl)pyridin-2(1H)-one hydrochloride], 10 nM.
Consider `CC(C)N1CCc2[nH]c3cc(-n4ccc(OCc5ccc(F)cn5)cc4=O)ccc3c2CC1` [Example 42, 4-((5-Fluoropyridin-2-yl)methoxy)-1-(3-isopropyl-1,2,3,4,5,6-hexahydroazepino[4,5-b]indol-8-yl)-pyridin-2(1H)-one hydrochloride], for which the Ki was 17.8 nM.
With `Cn1c2c(c3ccc(-n4ccc(OCc5ccccc5)cc4=O)cc31)CCNCC2` [Example 43, 4-(Benzyloxy)-1-(6-methyl-1,2,3,4,5,6-hexahydroazepino[4,5-b]indol-8-yl)pyridin-2(1H)-one hydrochloride] the figure was 8.9 nM.
Turning to `CN1CCc2c(n(C)c3cc(-n4ccc(OCc5ccccc5)cc4=O)ccc23)CC1` [Example 44, 4-(benzyloxy)-1-(3,6-dimethyl-1,2,3,4,5,6-hexahydroazepino[4,5-b]indol-8-yl)pyridin-2(1H)-one hydrochloride], the Ki came out at 11.6 nM.
